According to article PMC3720808 (European journal of medicinal chemistry, 2013):
Where two headings read alike, the source gives them in different places.

Columns and labels:
[1] = molecular target: T1, Axl (Homo sapiens, UniProt P30530); experiment: Microfluidic capillary electrophoresis; type: biochemical
T1 sequence (P30530 26-894): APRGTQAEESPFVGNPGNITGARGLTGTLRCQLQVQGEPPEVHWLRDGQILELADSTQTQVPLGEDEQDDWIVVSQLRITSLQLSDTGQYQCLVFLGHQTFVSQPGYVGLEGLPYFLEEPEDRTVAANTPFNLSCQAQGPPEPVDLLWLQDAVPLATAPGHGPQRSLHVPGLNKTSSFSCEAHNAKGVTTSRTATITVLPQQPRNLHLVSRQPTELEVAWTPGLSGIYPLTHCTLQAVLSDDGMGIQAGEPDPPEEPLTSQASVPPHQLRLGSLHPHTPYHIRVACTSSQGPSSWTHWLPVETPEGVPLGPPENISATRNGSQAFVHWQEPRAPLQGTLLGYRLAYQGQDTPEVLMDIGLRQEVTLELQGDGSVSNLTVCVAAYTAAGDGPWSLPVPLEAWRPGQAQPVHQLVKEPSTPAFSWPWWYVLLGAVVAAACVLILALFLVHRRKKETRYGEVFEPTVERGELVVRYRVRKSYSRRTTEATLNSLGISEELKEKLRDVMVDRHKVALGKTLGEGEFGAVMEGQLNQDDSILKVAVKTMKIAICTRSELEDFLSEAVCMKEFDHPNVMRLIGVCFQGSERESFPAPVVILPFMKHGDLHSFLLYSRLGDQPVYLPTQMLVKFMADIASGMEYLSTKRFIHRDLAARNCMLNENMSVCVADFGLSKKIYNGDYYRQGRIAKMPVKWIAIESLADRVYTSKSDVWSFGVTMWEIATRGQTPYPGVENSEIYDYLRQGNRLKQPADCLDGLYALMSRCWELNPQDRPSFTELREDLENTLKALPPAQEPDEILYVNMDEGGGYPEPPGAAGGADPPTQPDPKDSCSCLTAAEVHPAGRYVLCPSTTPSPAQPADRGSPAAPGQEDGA

[2] = molecular target: T2, Tyro3 (Homo sapiens, UniProt Q06418); experiment: Microfluidic capillary electrophoresis; type: biochemical
T2 sequence (Q06418 41-890): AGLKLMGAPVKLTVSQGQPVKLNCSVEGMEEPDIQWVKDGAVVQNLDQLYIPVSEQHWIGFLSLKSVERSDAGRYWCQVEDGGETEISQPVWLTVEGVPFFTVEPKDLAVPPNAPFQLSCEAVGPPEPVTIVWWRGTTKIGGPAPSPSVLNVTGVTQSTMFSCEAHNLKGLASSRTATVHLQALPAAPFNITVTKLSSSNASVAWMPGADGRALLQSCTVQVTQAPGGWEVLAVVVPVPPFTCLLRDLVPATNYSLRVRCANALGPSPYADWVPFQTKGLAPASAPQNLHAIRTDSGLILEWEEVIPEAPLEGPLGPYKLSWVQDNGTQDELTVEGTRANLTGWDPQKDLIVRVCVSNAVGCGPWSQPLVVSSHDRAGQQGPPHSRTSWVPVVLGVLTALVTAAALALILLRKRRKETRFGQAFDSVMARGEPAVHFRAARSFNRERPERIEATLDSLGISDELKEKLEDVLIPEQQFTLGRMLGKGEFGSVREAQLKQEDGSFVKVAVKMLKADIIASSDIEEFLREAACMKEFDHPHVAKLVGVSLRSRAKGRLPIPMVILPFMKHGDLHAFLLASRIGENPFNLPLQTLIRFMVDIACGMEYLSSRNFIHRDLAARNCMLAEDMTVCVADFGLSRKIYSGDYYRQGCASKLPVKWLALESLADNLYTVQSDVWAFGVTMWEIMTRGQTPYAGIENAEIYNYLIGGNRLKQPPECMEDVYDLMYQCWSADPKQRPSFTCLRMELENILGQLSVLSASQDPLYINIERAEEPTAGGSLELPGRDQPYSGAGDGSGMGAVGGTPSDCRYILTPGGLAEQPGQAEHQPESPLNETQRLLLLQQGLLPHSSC

[3] = molecular target: T3, Mer (Homo sapiens, UniProt Q12866); experiment: Microfluidic capillary electrophoresis; type: biochemical
T3 sequence (Q12866 21-999): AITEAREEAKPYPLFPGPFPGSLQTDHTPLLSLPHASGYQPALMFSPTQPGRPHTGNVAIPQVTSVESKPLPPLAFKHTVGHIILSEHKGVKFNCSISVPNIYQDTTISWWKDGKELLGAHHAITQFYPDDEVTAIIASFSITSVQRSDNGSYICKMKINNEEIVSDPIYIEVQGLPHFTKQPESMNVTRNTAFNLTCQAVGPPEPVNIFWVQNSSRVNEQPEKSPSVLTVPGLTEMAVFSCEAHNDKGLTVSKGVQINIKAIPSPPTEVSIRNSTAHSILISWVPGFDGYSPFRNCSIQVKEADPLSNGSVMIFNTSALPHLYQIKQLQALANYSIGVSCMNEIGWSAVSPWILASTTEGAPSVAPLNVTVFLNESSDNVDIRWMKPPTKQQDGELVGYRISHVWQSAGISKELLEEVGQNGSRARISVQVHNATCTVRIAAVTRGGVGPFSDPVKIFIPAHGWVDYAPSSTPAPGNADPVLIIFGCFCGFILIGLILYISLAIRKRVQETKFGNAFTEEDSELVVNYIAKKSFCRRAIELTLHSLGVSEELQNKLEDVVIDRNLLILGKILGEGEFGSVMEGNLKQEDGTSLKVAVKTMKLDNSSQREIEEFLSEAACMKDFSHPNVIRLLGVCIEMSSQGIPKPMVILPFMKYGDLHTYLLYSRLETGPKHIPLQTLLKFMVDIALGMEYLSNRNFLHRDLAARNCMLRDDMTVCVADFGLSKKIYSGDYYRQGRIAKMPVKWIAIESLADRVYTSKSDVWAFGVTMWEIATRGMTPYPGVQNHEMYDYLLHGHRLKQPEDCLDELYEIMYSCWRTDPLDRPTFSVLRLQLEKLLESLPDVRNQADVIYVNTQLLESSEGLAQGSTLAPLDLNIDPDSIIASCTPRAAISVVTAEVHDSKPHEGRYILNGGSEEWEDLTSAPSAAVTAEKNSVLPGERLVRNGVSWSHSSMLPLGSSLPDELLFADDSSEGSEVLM

[4] = tested on: A549 cells; experiment: Soft agar colony formation assay, A549; details: 2 weeks
[5] = tested on: Colo699 cells; experiment: Soft agar colony formation assay, Colo699; details: 2 weeks
[6] = molecular target: hERG channel (Homo sapiens, UniProt Q12809); experiment: hERG PatchXpress assay / hERG binding assay; details: read-out: hERG EC50
hERG channel, sequence (Q12809 whole entry): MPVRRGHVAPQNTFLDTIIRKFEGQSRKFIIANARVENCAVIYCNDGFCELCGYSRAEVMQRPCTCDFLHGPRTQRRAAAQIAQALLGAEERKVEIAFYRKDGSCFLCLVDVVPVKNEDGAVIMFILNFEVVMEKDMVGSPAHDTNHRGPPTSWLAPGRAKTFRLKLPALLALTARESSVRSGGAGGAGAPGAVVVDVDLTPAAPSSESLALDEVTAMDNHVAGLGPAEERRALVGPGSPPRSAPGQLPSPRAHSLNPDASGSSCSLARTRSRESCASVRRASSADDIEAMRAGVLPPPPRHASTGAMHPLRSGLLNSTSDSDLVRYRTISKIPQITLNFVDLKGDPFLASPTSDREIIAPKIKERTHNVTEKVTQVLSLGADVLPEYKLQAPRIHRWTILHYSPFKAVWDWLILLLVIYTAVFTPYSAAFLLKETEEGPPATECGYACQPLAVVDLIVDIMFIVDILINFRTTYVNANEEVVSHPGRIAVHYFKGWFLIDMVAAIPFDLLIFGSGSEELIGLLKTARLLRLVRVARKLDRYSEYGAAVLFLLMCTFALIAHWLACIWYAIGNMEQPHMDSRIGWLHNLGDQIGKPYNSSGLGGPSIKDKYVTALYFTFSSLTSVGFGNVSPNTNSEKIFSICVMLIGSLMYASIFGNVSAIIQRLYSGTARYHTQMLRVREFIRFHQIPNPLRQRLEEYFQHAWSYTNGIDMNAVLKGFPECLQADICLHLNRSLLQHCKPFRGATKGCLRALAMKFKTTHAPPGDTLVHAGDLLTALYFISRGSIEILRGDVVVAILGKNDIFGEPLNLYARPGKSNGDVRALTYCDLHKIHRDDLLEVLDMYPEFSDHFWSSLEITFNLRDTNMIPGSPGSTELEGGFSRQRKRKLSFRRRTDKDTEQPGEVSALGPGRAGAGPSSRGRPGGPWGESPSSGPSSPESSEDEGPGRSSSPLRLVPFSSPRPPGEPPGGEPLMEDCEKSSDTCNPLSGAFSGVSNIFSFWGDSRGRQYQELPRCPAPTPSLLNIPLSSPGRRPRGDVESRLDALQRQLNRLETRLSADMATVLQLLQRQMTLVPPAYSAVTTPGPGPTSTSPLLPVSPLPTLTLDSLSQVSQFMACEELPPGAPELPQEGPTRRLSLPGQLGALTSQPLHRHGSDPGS

## CCCCNc1ncc2c(-c3ccc(S(=O)(=O)NC)cc3)nn(C[C@H]3CC[C@H](N)CC3)c2n1 [Compound 2, 4-(1-((trans-4-Aminocyclohexyl)methyl)-6-(butylamino)-1H-pyrazolo[3,4-d]pyrimidin-3-yl)-N-methylbenzenesulfonamide]
[1]
  IC50: 59 nM
[2]
  IC50: 27 nM

## CCCCNc1ncc2c(-c3ccc(S(=O)(=O)NC)cc3)nn(C[C@H]3CC[C@H](O)CC3)c2n1 [Compound 7, 4-(1-((trans-4-Hydroxycyclohexyl)methyl)-6-(butylamino)-1H-pyrazolo[3,4-d]pyrimidin-3-yl)-N-methylbenzenesulfonamide]
[1]
  IC50: 140 nM
[2]
  IC50: 130 nM

## CCCCNc1ncc2c(-c3ccc(NS(C)(=O)=O)cc3)nn([C@H]3CC[C@H](O)CC3)c2n1 [Compound 18, trans-N-(4-(6-(Butylamino)-1-(4-hydroxycyclohexyl)-1H-pyrazolo[3,4-d]pyrimidin-3-yl)phenyl)methanesulfonamide]
[1]
  IC50: 110 nM
[2]
  IC50: 35 nM

## CCCCNc1ncc2c(-c3ccc(S(N)(=O)=O)cc3)nn([C@H]3CC[C@H](O)CC3)c2n1 [Compound 20, trans-4-(6-(Butylamino)-1-(4-hydroxycyclohexyl)-1H-pyrazolo[3,4-d]pyrimidin-3-yl)benzenesulfonamide]
[1]
  IC50: 29 nM
[2]
  IC50: 54 nM
[3]
  IC50: 1.4 nM

## CCCCNc1ncc2c(-c3ccc(S(=O)(=O)NCCC)cc3)nn([C@H]3CC[C@H](O)CC3)c2n1 [Compound 21, trans-4-(6-(Butylamino)-1-(4-hydroxycyclohexyl)-1H-pyrazolo[3,4-d]pyrimidin-3-yl)-N-propylbenzenesulfonamide]
[1]
  IC50: 62 nM
[2]
  IC50: 35 nM

## CCCCNc1ncc2c(-c3ccc(S(=O)(=O)NC(C)C)cc3)nn([C@H]3CC[C@H](O)CC3)c2n1 [Compound 22, trans-4-(6-(Butylamino)-1-(4-hydroxycyclohexyl)-1H-pyrazolo[3,4-d]pyrimidin-3-yl)-N-isopropylbenzenesulfonamide]
[1]
  IC50: 120 nM
[2]
  IC50: 68 nM

## CCCCNc1ncc2c(-c3ccc(S(=O)(=O)NC4CCCC4)cc3)nn([C@H]3CC[C@H](O)CC3)c2n1 [Compound 24, trans-4-(6-(Butylamino)-1-(4-hydroxycyclohexyl)-1H-pyrazolo[3,4-d]pyrimidin-3-yl)-N-cyclopentylbenzenesulfonamide]
[1]
  IC50: 67 nM
[2]
  IC50: 31 nM

## CCCCNc1ncc2c(-c3ccc(S(=O)(=O)NC4CCCCC4)cc3)nn([C@H]3CC[C@H](O)CC3)c2n1 [Compound 25, trans-4-(6-(Butylamino)-1-(4-hydroxycyclohexyl)-1H-pyrazolo[3,4-d]pyrimidin-3-yl)-N-cyclohexylbenzenesulfonamide]
[1]
  IC50: 350 nM
[2]
  IC50: 45 nM

## CCCCNc1ncc2c(-c3ccc(S(=O)(=O)NC4CCOCC4)cc3)nn([C@H]3CC[C@H](O)CC3)c2n1 [Compound 26, trans-4-(6-(Butylamino)-1-(4-hydroxycyclohexyl)-1H-pyrazolo[3,4-d]pyrimidin-3-yl)-N-(tetrahydro-2H-pyran-4-yl)benzenesulfonamide]
[1]
  IC50: 69 nM
[2]
  IC50: 28 nM

## CCCCNc1ncc2c(-c3ccc(S(=O)(=O)Nc4ccc(F)cc4)cc3)nn([C@H]3CC[C@H](O)CC3)c2n1 [Compound 27, trans-4-(6-(Butylamino)-1-(4-hydroxycyclohexyl)-1H-pyrazolo[3,4-d]pyrimidin-3-yl)-N-(4-fluorophenyl)benzenesulfonamide]
[1]
  IC50: 6500 nM
[2]
  IC50: 290 nM

## CCCCNc1ncc2c(-c3ccc(S(=O)(=O)N4CCCC4)cc3)nn([C@H]3CC[C@H](O)CC3)c2n1 [Compound 34, trans-4-(6-(Butylamino)-3-(4-(pyrrolidin-1-ylsulfonyl)phenyl)-1H-pyrazolo[3,4-d]pyrimidin-1-yl)cyclohexanol]
[1]; read-out: IC50 Axl, ATP at Km, mean of two or more independent assays
  IC50: 46 nM
[2]; read-out: IC50 Tyro3, ATP at Km, mean of two or more independent assays
  IC50: 22 nM
[3]; read-out: IC50 Mer, ATP at Km, mean of two or more independent assays
  IC50: 0.65 nM

## CCCCNc1ncc2c(-c3ccc(S(=O)(=O)N4CCOCC4)cc3)nn([C@H]3CC[C@H](O)CC3)c2n1 [Compound 35, trans-4-(6-(Butylamino)-3-(4-(morpholinosulfonyl)phenyl)-1H-pyrazolo[3,4-d]pyrimidin-1-yl)cyclohexanol]
[4]
  colony formation in soft agar: inhibited colony formation
[5]
  colony formation in soft agar: inhibited colony formation

## CCCCNc1ncc2c(-c3ccc(S(=O)(=O)N4CCC(C(=O)N5CCOCC5)CC4)cc3)nn([C@H]3CC[C@H](O)CC3)c2n1 [Compound 36, trans-(1-((4-(6-(Butylamino)-1-(4-hydroxycyclohexyl)-1H-pyrazolo[3,4-d]pyrimidin-3-yl)phenyl)sulfonyl)piperidin-4-yl)(morpholino)methanone]
[1]
  IC50: 23 nM
[2]
  IC50: 76 nM
[3]
  IC50: 1.4 nM

## CCCCNc1ncc2c(-c3ccc(F)cc3)nn(CC3CCC(N)CC3)c2n1 (stereo not drawn) [UNC569]
[6]
  EC50: 1700 nM
